Experimental data: patent publication US7973219B2, “Method for producing transgenic plants resistant to weed control compounds which disrupt the porphyrin pathways of plants” (Sumitomo Chemical Company, Limited, priority 1998, dated 2011)
Where two headings read alike, the source gives them in different places.

Assays:
[1] = tested on: E. coli BT3/pACYCSP+pTVCRP strain; assay: Growth of E. coli BT3/pACYCSP+pTVCRP (variant Chlamydomonas reinhardtii PPO) with herbicidal compound; format: cell-based, Escherichia coli; settings: 18 hours culture, Table 9
Excerpt: According to the description of Gibson, L. C. D. et al., Proc. Natl. Acad. Sci. USA, 92; p 1941 (1995), the DNA fragment containing bchH gene prepared in Example 1 was digested with the restriction enzymes NdeI and BglII. The resultant DNA fragment was inserted between NdeI restriction site and BamHI restriction site of expression vector pET11a (manufactured by Stratagene) to obtain plasmid pETBCH (FIG. 1). This plasmid pETBCH was introduced into E. coli BL21(DE3) strain competent cells (manufactured by Stratagene) according to the manual attached to the competent cells to obtain E. coli BL21(DE3)/pETBCH strain. The strain was inoculated into 1.5 ml LB liquid culture medium (1% tryptone, 0.5% yeast extract, 0.5% NaCl) containing 100 μg/ml ampicillin in a tube (14×10 mm), and the tube was covered with aluminum foil (hereinafter referred to as dark conditions), cultured with shaking at 37° C. under light of fluorescent lamp (about 8000 lux). When the absorbance at 600 nm of the liquid culture medium became about 0.6, isopropyl β-D-thiogalactopyranoside (IPTG) was added to the liquid culture medium so that the final concentration was 0.4 mM, and the culture was continued for about additional 20 hours. […] In contrast to this, when E. coli BL21(DE3)/pETBCH strain was cultured according to the same manner (with IPTG) except that the tube was not covered with aluminum foil (hereinafter referred to as light conditions), E. coli grew and turned red as above.
Plasmids pTVCRP and pTV118N prepared in Example 16 were introduced into E. coli BT3/pACYCSP strain prepared in Example 3 respectively according to the method described in Hanahan, D. J., Mol. Biol., 166; p 557 (1983). E. coli BT3/pACYCSP+pTVCRP strain bearing plasmids pACYCSP and pTVCRP, and E. coli BT3/pACYCSP+pTV118N strain bearing plasmids pACYCSP and pTV118N were obtained by culturing the above strains in YPT medium containing 100 μg/ml ampicillin, 15 μg/ml chloramphenicol and 10 μg/ml kanamycin.
These E. coli strains were inoculated into YPT medium containing 10 or 1 ppm of the PPO inhibitory-type herbicidal compound represented by Structure 8, 100 μg/ml ampicillin. 15 μg/ml chloramphenicol, 10 μg/ml kanamycin, 10 μg/ml hemin and 50 μg/ml aminolevulinic acid, cultured under dark conditions or light conditions in the same manner as in Example 2. Then, 18 hours after initiation of culture, the absorbance of liquid culture medium was measured at 600 nm. By taking the absorbance of the medium containing no herbicidal compound as 1, the relative value of the absorbance of the medium containing the herbicidal compound was calculated.

[2] = tested on: tobacco into which bchH gene was introduced; assay: Leaf piece chlorophyll test, tobacco into which bchH gene was introduced; format: in vivo; settings: 0.3 ppm, Table 4; for activity at 0.3 ppm: Nicotiana tabacum, 168 h, 7 days in light, treated vs untreated leaf pieces, read-out: Resistant level to test compound; for Total chlorophyll content treated-leaf: leaf pieces 7 days in light place
Procedure: Then, according to the method described in Manual for Gene Manipulation of Plant (by Hirofumi UCHIMIYA, Kodan-sha Scientific, 1992), the gene was introduced into tobacco. Agrobacterium strain bearing plasmid pBIBCH was cultured at 28° C. overnight in LB medium and then leaf pieces of tobacco cultured sterilely were dipped in the liquid culture medium. The leaf pieces were cultured at room temperature for 2 days in Murashige-Skoog medium (MS-medium, described in Murasige T. and Skoog F., Physiol. Plant. (1962) 15, p 473) containing 0.8% agar, 0.1 mg/liter naphthalene acetic acid and 1.0 mg/liter benzyl aminopurine. Then, the leaf pieces were washed with sterilized water and cultured for 7 days on MS medium containing 0.8% agar, 0.1 mg/liter naphthalene acetic acid, 1.0 mg/liter benzyl aminopurine and 500 μg/ml cefotaxime. The leaf pieces were transplanted onto MS medium containing 0.8% agar, 0.1 mg/liter naphthalene acetic acid, 1.0 mg/liter benzyl aminopurine, 500 μg/ml cefotaxime and 100 μg/ml kanamycin (hereinafter referred to as selective MS medium) and cultured on the medium continuously for 4months with transplanting the tobacco leaf pieces onto fresh selective MS medium every 1 month. During culture, stem-leaf differentiated shoots were appeared from the tobacco leaf pieces, these shoots were transplanted to MS medium containing 0.8% agar, 300 μg/ml cefotaxime and 50 μg/ml kanamycin to induce roots to obtain regenerated plants. The resultant regenerated plant was transplanted and cultured on MS medium 0.8% agar and 50 μg/ml kanamycin to obtain tobacco plant into which bchH gene was introduced. Similarly, tobacco leaf pieces were infected with Agrobacterium strain bearing pNO to obtain regenerated plant from the tobacco leaf pieces and tobacco plant (hereinafter referred to as control recombinant tobacco).
The tobacco leaves into which bchH gene was introduced and control recombinant tobacco leaves obtained in Example 5 were collected and each leaf was divided into the right and left equivalent pieces along the main vein, respectively. To one piece was applied an aqueous solution containing 0.3 ppm PPO inhibitory-type herbicidal compound of Structure 8, while, to the other piece was not applied the compound. These leaf pieces were placed on MS medium containing 0.8% agar and allowed to stand at room temperature for 7 days in light place. Then, each leaf piece was ground with pestle and mortar in 5 ml of 80% aqueous acetone solution to extract chlorophyll. The extract liquid was diluted with 80% aqueous acetone solution and the absorbance was measured at 750 nm, 663 nm and 645 nm to calculate total chlorophyll content according to the method described by Macknney G., J. Biol. Chem. (1941) 140, p 315. The results obtained from 4 clones of tobacco into which bchH gene was introduced (BCH1 to 4) and control recombinant tobacco is shown in Table 4. In the table, the resistant level to the herbicidal compound was represented by percentages of the total chlorophyll content of leaf pieces treated with herbicidal compound to that of untreated leaf pieces.
The tobacco clone into which bchH gene was introduced and control recombinant tobacco were also treated in the same manner with the solution containing PPO inhibitory-type herbicidal compound represented by the above Structure 3, 7, 10, 11, 13, 17, 23, 24, 25, 27, 28, 30 or 35, and the resistant level to each herbicidal compound was measured. In the table, the resistant levels to the herbicidal compound were represented by percentages of the total chlorophyll content of leaf pieces treated with the herbicidal compound to that of untreated leaf pieces.

In the case of `C#CCOc1cc(N2C(=O)C3=C(CCCC3)C2=O)c(F)cc1Cl` [Structure 8], the Relative absorbance ([1]; in the dark, 1 ppm) was 0.82, the Relative absorbance ([1]; in the dark, 10 ppm) was 0.81 and the Relative absorbance ([1]; in the light, 1 ppm) was 0.42. The Relative absorbance ([1]; in the light, 10 ppm) was 0.23, the activity at 0.3 ppm ([2]; clone BCH-1) was 126% and the activity at 0.3 ppm ([2]; clone BCH-2) was 104%. For the same molecule, the activity at 0.3 ppm ([2]; clone BCH-3) was 81.3%, the activity at 0.3 ppm ([2]; clone BCH-4) was 70.2% and the “Total chlorophyll content treated-leaf” value ([2]; clone BCH-1) was 1.70 mg/g-fresh weight. For the same molecule, the “Total chlorophyll content treated-leaf” value ([2]; clone BCH-2) was 2.14 mg/g-fresh weight, the “Total chlorophyll content treated-leaf” value ([2]; clone BCH-3) was 1.57 mg/g-fresh weight and the “Total chlorophyll content treated-leaf” value ([2]; clone BCH-4) was 1.06 mg/g-fresh weight.
